Assay results reported in patent US20260355199A1, “COMPOSITIONS AND METHODS FOR TREATING OR PREVENTING NONALCOHOLIC STEATOHEPATITIS (NASH), ANOREXIA, DEPRESSION, ENDOMETRIOSIS, AND OTHER DISEASES OR DISORDERS” (priority 2022, published 2026).
“Also recorded” adds a separate entry of the source.

Columns and labels:
TET2 = TET2 expression in GT1-7 cells; assay type: cell-based, mouse; settings: 10 μM, 6 h
Description: For Bobcat339 treatment (FIG. 15A and FIG. 15B), GT1-7 cells grown in 24-well plates at 2×10^5 cells/well were incubated with vehicle or Bobcat339 at a final concentration of 10 μM for 6 h, followed by RNA and protein extractions. For TET3 protein stability assay (FIG. 15B), GT1-7 cells in 24-well plates at 2×10^5 cells/well were incubated with vehicle or Bobcat339 at a final concentration of 10 μM for 3 hours, followed by addition of cycloheximide (CHX, Cell Signaling, 2112) at a final concentration of […] in the presence of 10 μM of Bobcat339. Proteins were harvested at 0, 1, 2, and 3 hours after addition of CHX. For TET3 expression restoration experiments (FIG. 15C and FIG. 15D), GT1-7 or SH-SY5Y cells seeded in 24-well plates at 2×10^5 cells/well were infected with Ad-GFP or Ad-TET3 at 4000 gc/cell. Following 16 h of infection, vehicle or Bobcat339 were added at a final concentration of 10 μM. Protein and RNA were isolated 48 h later and analyzed.
GT1-7 and SH-SY5Y cells in 24-well plates were collected by manual scraping in 2×SDS-sample buffer containing 1× Phosphatase inhibitor cocktail (Thermo, 78427) and 1× Protease inhibitor cocktail (Thermo, 78438), followed by heating at 100 °C for 5 min with occasional vortexing. […]

AGRP, NPY, and VGAT = test: AGRP, NPY and VGAT expression in the ARC of mice; assay type: in vivo, mouse; settings: Bobcat339 vs. vehicle mice
Description: The GFP construct used for tagging AgRP neurons labels almost exclusively the perikaryon. The presence of AGRP, NPY, and VGAT outside the perikarya reflected the fact that these fast-firing neurons transport their neuromodulatory products rabidly to the neuronal processes.
Bobcat339 powder (Sigma-Aldrich, SML2611) was freshly dissolved in DMSO (vehicle) at a concentration of 50 mg/mL and filtered through a 0.22 micron. It was further diluted with 1×PBS to a final concentration of 0.5 mg/mL before injections. Mice were injected intraperitoneally with Bobcat339 at 1 mg/kg, 2.5 mg/kg, or 4 mg/kg.
Total RNAs were extracted from neuronal cells or homogenized hypothalamic arcuate nucleus tissue samples using PureLink RNA Mini Kit (Ambion, 12183025). cDNA was synthesized using PrimeScript RT Reagent Kit in a 20 μl reaction containing 0.5-1 μg of total RNA. Real-time quantitative PCR was performed in a 15 μl reaction containing 0.5-1 μl of cDNA using SsoAdvanced Universal SYBR Green Supermix in a Bio-Rad iCycler. Specificity was verified by melting curve analysis. The Ct values of each sample were used in the post-PCR data analysis. […]
The immunofluorescence for brain slices was conducted using previous methods (18). […] The sections were coverslipped and scoped using a Keyence BZ-X700 fluorescence microscope. The fluorescence signals from GFP in AgRP neurons were detected without immunostaining.

[1] = test system: Lewis lung carcinoma (LLC); test: Syngeneic LLC murine model of lung cancer; assay type: in vivo, mouse; settings: for body weight gain: day 16 vs. day 0
Description: Metastatic lung cancer was established by tail vein injection of Lewis lung carcinoma (LLC) (a mouse NSCLC cell line, Bertram et al., 1980, Cancer Lett, 11:63-73) cells into immunocompetent mice (FIG. 30A). Intravenous dosing of Bobcat339 (or vehicle) at 2.5 mg/kg every four days was initiated three days after tumor cell injection. The lungs were collected at day 20 from sacrificed mice. On day 16 as compared to day 0, mice in the Veh group lost ~5% of body weight, whereas those in the Bobcat339 group gained ~6% of body weight, which would be expected for a normal female mouse during this age period (FIG. 30B). […] Severe weight loss is frequently seen in patients with NSCLC, which is also associated with systemic inflammation and cancer cachexia (Staal-van den Brekel et al., 1995, J Clin Oncol, 13:2600-2605; Fredrix et al., 1991, Cancer, 68:1616-1621; Jatoi et al., 2001, Ann Thorac Surg, 72:348-351; Ulmann et al., 2019, Ann Nutr Metab, 75:223-230; Jouinot et al., 2020, Clin Nutr, 39:1893-1899).
Metastatic lung cancer was established by tail vein injection of Lewis lung carcinoma (LLC) (a mouse NSCLC cell line) (Bertram et al., 1980, Cancer Lett, 11:63-73) cells into immunocompetent mice (FIG. 29). Intravenous dosing of Bobcat339 (or vehicle) at 3 mg/kg every four days was initiated three days after tumor cell injection. The lungs were collected at day 20 from sacrificed mice.
LLC cells (2.5×10^5 cells/mouse) were injected into the tail vein of female C57BL/6J mice of 8-weeks old. Mice were randomly divided into vehicle (n=5) and Bobcat339 (n=5) groups. Three days after tumor cell injection, the vehicle group mice received tail vein injection of DMSO and the Bobcat339 group with Bobcat339 at the dose of 2.5 or 3 mg/kg body weight every four days. The animals were sacrificed 20 days after tumor cell injection and lungs were isolated and weighed. The whole lung was fixed in 4% paraformaldehyde overnight at 4 °C and embedded in paraffin for histological analysis and IHC. A second cohort of mice (n=5 in each group) treated as above were used for survival studies using moribund as an experimental endpoint.

[2] = 2.5 mg/kg i.v. every four days, day 20

Nc1nc(=O)n(-c2cccc(-c3ccccc3)c2)cc1Cl [Bobcat339, 4-Amino-1-[1,1′-biphenyl]-3-yl-5-chloro-2(1H)-pyrimidinone]
TET2 expression (TET2): did not affect TET2 expression
AGRP, NPY, and VGAT protein in the ARC (AGRP, NPY, and VGAT): increased productions of AGRP, NPY, and VGAT; also recorded: a marked increase in their expressions
Agrp, Npy and Slc32a1 mRNA in the ARC (AGRP, NPY, and VGAT): Increases in the mRNA levels of Agrp, Npy and Slc32a1; also recorded: increased expressions of Agrp, Npy, and Slc32a1
food intake ([1]; 2.5 mg/kg i.v. every four days): no difference in food intake
body weight gain ([1]; 2.5 mg/kg i.v. every four days): ~ 6%
LLC metastases in lungs [1, 2]: Fewer LLC metastases
lung weight [1, 2]: significantly less
LLC metastases in lungs ([1]; 3 mg/kg i.v. every four days): fewer LLC metastases
food intake ([1]; 3 mg/kg i.v. every four days): no difference in food intake
lung weight ([1]; 3 mg/kg i.v. every four days): significantly less
survival rate ([1]; 3 mg/kg i.v. every four days): an increased survival rate
body weight gain ([1]; 3 mg/kg i.v. every four days): ~ 6%
